Laboratory results: patent US20220192956A1, “SUPERIOR EFFICACY OF AZOXYSTROBIN AND OTHER STROBILURINS” (The Procter & Gamble Company, priority 2020, published 2022)
Converted amounts (≈) assume the structure as drawn.

Key:
[1] = tested on: Malassezia furfur (CBS 7982); assay: In vitro antifungal potency (MIC), growth read by absorbance at 600 nm; type: cell-based; conditions: for MIC (ppm) against Malassezia furfur / MIC: mDixon medium, 31° C., approximately 72 hours; for MIC: CBS7982, read-out: MIC (ppm) against Malassezia furfur
Description: (§1) Malassezia furfur (CBS 7982), Malassezia sympodialis (ATCC 42132), and Malassezia pachydermatis (CBS 1879) is grown for approximately 24 hours in a 250 ml vent cap polycarbonate Erlenmeyer flask containing approximately 100 ml of mDixon medium and 5 ml of a fully grown Malassezia culture is prepared using the same conditions as described. The cells are diluted by mixing 2.5 ml of the 24 hour-old culture per 50 ml of mDixon medium. A Versette robot (ThermoFisher Scientific) is used to transfer 292.5 μl of the dilute cells into each well of a Beckman 267007 polypropylene round bottom deep well plate.
(§2) All compounds are sourced from Sigma Aldrich (St. Louis, Mo.) and prepared as 10 mg/ml in DMSO. A semipermeable aeraseal membrane is applied to the plate which is then covered with water-soaked cotton batting. The samples are shaken at 31° C. on a Heidolph Titramax 100 shaker at 1500 rpm for approximately 72 hours. The plates are shaken at 1250 rpm on an Eppendorf MixMate shaker to disperse the cells before 200 μl of cells is transferred to a Corning 3596 polystyrene plate. The samples are shaken again at 950 rpm on a MixMate shaker before the absorbance at 600 nm is read using a Molecular Devices SpectraMax plate reader.

[2] = tested on: Malassezia pachydermatis (CBS 1879); assay: as above; type: cell-based; conditions: mDixon medium, 31° C., approximately 72 hours; for MIC: Malassezia pachydermatis, CBS1879, read-out: MIC (ppm) against Malassezia pachydermatis
Description: as §1, §2

[3] = tested on: Malassezia sympodialis (ATCC 42132); assay: as above; type: cell-based; conditions: mDixon medium, 31° C., approximately 72 hours; for MIC: Malassezia sympodialis, ATCC42132, read-out: MIC (ppm) against Malassezia sympodialis
Description: as §1, §2

[4] = tested on: Candida albicans (ATCC 10231); assay: as above; type: cell-based; conditions: Sabouraud Broth, 31° C., evaluated at concentrations up to 250 ppm; for MIC: Candida albicans, ATCC10231, read-out: MIC (ppm) against Candida albicans
Description: Candida albicans (ATCC 10231) is grown overnight in Sabouraud Broth (SDB). 190 μl of SDB is added per well of a Corning 3596 polystyrene plate followed by 5 μl of test material as two-fold dilutions in DMSO and 5 μl C. albicans. The cells are incubated at 31° C., without shaking, and wrapped in wet cotton batting. The plates are shaken for 30 seconds at 950 rpm on a MixMate shaker. The absorbance at 600 nm is read on a Spectramax plate reader.
as §2

[5] = tested on: Aspergillus brasiliensis (ATCC 16404); assay: In vitro antifungal potency (MIC), growth graded visually; type: cell-based; conditions: spores in SDB, 25° C., approximately 96 h; for MIC: Aspergillus brasiliensis, ATCC16404, read-out: MIC (ppm) against Aspergillus brasiliensis
Description: Aspergillus brasiliensis (ATCC 16404): Aspergillus spores are prepared by inoculating a Sabouraud agar plate and incubating at 25° C. for 6-10 days, after which, 10 mL of Saline+Tween-80 is added to dislodge the spores. The suspension is then filtered through 2 layers of sterile gauze. The spores are diluted two-fold in SDB. 190 μl of SDB is added to a Corning 3596 polystyrene plate followed by 5 μl of test compound per well and 5 μl of the diluted spores. The plates are incubated at 25° C. for approximately 96 h at high humidity. Growth is graded visually as either growth or no growth.
as §2

[6] = tested on: Malassezia yeasts; assay: In vitro antifungal potency (MIC), statements across the Malassezia species tested; type: cell-based
Description: as §1, §2

[7] = cited from earlier work

SMILES	MIC (ppm) against Malassezia furfur [1] [ppm]	MIC (ppm) against Malassezia pachydermatis [2] [ppm]	MIC (ppm) against Malassezia sympodialis [3] [ppm]	MIC (ppm) against Candida albicans [4] [ppm]	MIC (ppm) against Aspergillus brasiliensis [5] [ppm]	MIC against Malassezia yeasts (all species tested) ([6]; M. furfur, M. sympodialis, M. pachydermatis)	times more potent than pyraclostrobin (MIC against Malassezia, in all cases) ([6]; ratio of MICs, all three Malassezia species) [times]	solubility in water [7]	MIC ([1]; Malassezia furfur) [µg/mL]	MIC [2] [µg/mL]	MIC [3] [µg/mL]	MIC [4] [µg/mL]	MIC [5] [µg/mL]	times less potent than azoxystrobin (MIC against Malassezia furfur) ([1]; ratio of MICs, Malassezia furfur) [times]
CO/C=C(/C(=O)OC)c1ccccc1Oc1cc(Oc2ccccc2C#N)ncn1 [Azoxystrobin]	0.49	0.98	0.12	>250	0.24	less than 1.0 ppm	4	low	–	–	–	–	–	–
CNC(=O)/C(=N/OC)c1ccccc1COc1cc(C)ccc1C [Dimoxystrobin, dimoxystrobin]	7.81	31.25	1.95	>250	0.24	–	–	–	–	–	–	–	–	–
CO/N=C(/C1=NOCCO1)c1ccccc1Oc1ncnc(Oc2ccccc2Cl)c1F [Fluoxastrobin, fluoxastrobin]	–	–	–	–	–	–	–	–	3.91 (≈ 8.52 µM)	7.81 (≈ 17 µM)	1.95 (≈ 4.25 µM)	> 250	0.49 (≈ 1.07 µM)	–
CO/N=C(/C(=O)OC)c1ccccc1COc1ccccc1C [Kresoxim-methyl, kresoxim methyl]	–	–	–	–	–	–	–	–	15.6 (≈ 49.9 µM)	31.2 (≈ 99.7 µM)	3.91 (≈ 12.5 µM)	> 250	0.98 (≈ 3.13 µM)	–
CNC(=O)/C(=N/OC)c1ccccc1CO/N=C(C)/C(=N/OC)C(/C)=N/OC [Orysastrobin, orysastrobin]	31.25	125	7.81	>250	31.25	–	–	–	–	–	–	–	–	64
COC(=O)N(OC)c1ccccc1COc1ccn(-c2ccc(Cl)cc2)n1 [Pyraclostrobin, pyraclostrobin]	–	–	–	–	–	–	–	–	1.95 (≈ 5.03 µM)	3.91 (≈ 10.1 µM)	0.49 (≈ 1.26 µM)	> 250	0.02 (≈ 0.0516 µM)	–
CON=C(C(=O)OC)c1ccccc1CON=C(C)c1cccc(C(F)(F)F)c1 [Trifloxystrobin, trifloxystrobin]	–	–	–	–	–	–	–	–	15.6 (≈ 38.3 µM)	31.2 (≈ 76.5 µM)	1.95 (≈ 4.78 µM)	> 250	31.2 (≈ 76.5 µM)	–
